# Literature values, collected in patent US20110313027A1, “METHODS AND SUBSTANCES FOR STIMULATING MUSCLE REGENERATION” (priority 2008, published 2011).
# Test system: SERCAs
# Details: cultured muscle cells
smiles,measurement,value
C/C=C(/C)C(=O)O[C@H]1C(C)=C2[C@H]([C@@H]1OC(=O)CCCCCCC)[C@@](C)(OC(C)=O)C[C@H](OC(=O)CCC)[C@@]1(O)[C@H]2OC(=O)[C@@]1(C)O [thapsigargin],activity of an NFAT reporter construct,increased the activity
same,myotube growth and differentiation,decreases myotube growth and differentiation
